For data set [1], the system named is beagles. As to the kind of experiment: Blood sodium level (serum Na+, ion-selective electrode) in beagles (Test Example 5). Particulars: compound 5 administered intragastrically 2.7 mg/kg, FIG. 1. In kind it is in vivo. On the procedure:
(§1) A proper amount of compound 1b disodium salt and compound 5 was accurately weighed out and well mixed with a proper volume of normal saline by vortexing or ultrasonication to give a 0.5 mg/mL clear solution of compound 1b disodium salt, a 0.25 mg/mL clear solution of compound 5 and a 1.35 mg/mL clear solution of compound 5 for intravenous drip administration.
(§2) A proper amount of tolvaptan and compound 5 was accurately weighed out and well mixed with a proper volume of 1% hydroxypropyl methylcellulose by vortexing or ultrasonication to give a 5 mg/mL solution of tolvaptan and a 1.35 mg/mL solution of compound 5 for intragastric administration.
The compounds of the intravenous administration group were administered via an intravenous drip over 1 h. The compounds of the intragastric administration group were intragastrically administered. […] Plasma samples were separated and cryopreserved at −70° C., and the levels of related compounds in vivo were determined by LC-MS/MS. About 0.5 mL of blood was collected via the jugular vein or in other suitable ways, placed into separator gel blood collection tubes (without an anticoagulant) and centrifuged at room temperature at 3500 rpm for 10 min to separate the serum, and the concentration of Na^+ in the serum was determined by using the ion-selective electrode method.

Data set [2] is described as follows: Pharmacokinetic study in beagles (Test Example 5), intravenous drip and intragastric administration. In kind it is in vivo. To be noted: for AUC(0-t) / Cmax / Tmax / half-life: beagle, dog, plasma. As for the experimental part: (§3) 1.1.1. Experimental Animals: Beagles, Non-Naïve, Sourced from the Animal Repository of Medicilon: 999M-004.
as §1, §2
The compounds of the intravenous administration group were administered via an intravenous drip over 1 h. The compounds of the intragastric administration group were intragastrically administered. Time points of blood collection were: before the administration and 30 min, 1 h, 1.5 h, 2 h, 4 h, 6 h, 12 h and 24 h after the administration. About 1 mL of blood was collected via the jugular vein or in other suitable ways. EDTA-K2 was used as the anticoagulant, and the esterase inhibitor DDVP was added. Plasma samples were separated and cryopreserved at −70° C., and the levels of related compounds in vivo were determined by LC-MS/MS. About 0.5 mL of blood was collected via the jugular vein or in other suitable ways, placed into separator gel blood collection tubes (without an anticoagulant) and centrifuged at room temperature at 3500 rpm for 10 min to separate the serum, and the concentration of Na^+ in the serum was determined by using the ion-selective electrode method.

Data set [3] in a line: Pharmacokinetic study in rats (Test Example 4), intragastric administration. In kind it is in vivo. Particulars: Sprague-Dawley, rat, plasma, SD rats, mean value. As for the experimental part: 1.1.1. Experimental Animals: SD Rats, Male and Female, Weighing about 180-220 g. Housing Environment: SPF. The Animals were Transferred from the Animal Repository (999M-017) of the Laboratory Animal Management Department, Shanghai Institute of Planned Parenthood Research. 1.1.2. Administration Regimen:
Tolvaptan and compound 5 were intragastrically administrated. Blood was collected before the administration and 10 min, 0.5 h, 1 h, 2 h, 4 h, 6 h, 8 h and 24 h after the administration. EDTA-K2 was used as the anticoagulant, and the esterase inhibitor DDVP was added. Plasma samples were separated and cryopreserved at −70° C., and the compound 5 and tolvaptan levels were determined by LC-MS/MS.

The target in data set [4] is T1, Arginine vasopressin receptor 2 (AVPR2) (Homo sapiens, UniProt P30518).
T1 construct: host or cells: Flpin-CHO (CHO cells)
T1 sequence (P30518 whole entry): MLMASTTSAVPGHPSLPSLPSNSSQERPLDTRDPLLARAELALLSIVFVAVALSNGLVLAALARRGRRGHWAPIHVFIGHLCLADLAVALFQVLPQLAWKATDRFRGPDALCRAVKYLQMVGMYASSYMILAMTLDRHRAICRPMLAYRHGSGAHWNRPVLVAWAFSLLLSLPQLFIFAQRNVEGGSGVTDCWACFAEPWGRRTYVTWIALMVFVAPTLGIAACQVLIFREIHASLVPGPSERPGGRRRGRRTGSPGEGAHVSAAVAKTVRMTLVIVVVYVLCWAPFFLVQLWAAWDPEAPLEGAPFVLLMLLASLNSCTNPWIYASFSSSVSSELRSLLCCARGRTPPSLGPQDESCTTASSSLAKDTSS
Briefly: Arginine vasopressin receptor 2 (AVPR2) receptor cAMP assay in Flpin-CHO-AVPR2 cells. In kind it is cell-based, humans. To be noted: arginine vasopressin stimulation. A general note: cAMP levels reflect the balance of adenylyl cyclase and phosphodiesterase activity.
Protocol: The test compound was 5-fold diluted with assay buffer (Hank's balanced salt solution+20 mM HEPES+0.1% BSA+500 μM IBMX (manufacturer: Sigma)). The highest initial concentration of the test compound in the assay was 10 μM.
Flpin-CHO-AVPR2 (the cell strain was constructed by Pharmaron Beijing Co., Ltd.; AVPR2 was derived from humans)
• 1) Cells were digested, resuspended in assay buffer and inoculated into a 384-well cell culture plate at a density of 8000 cells per well and a volume of 15 μL per well. • 2) The compound was diluted with assay buffer. • 3) 2.5 μL of the compound was added to each well, and the plate was incubated at 37° C. for 10 min. • 4) Arginine vasopressin (manufacturer: MedChemExpress) was diluted with assay buffer to a concentration of 16 μM. • 5) 2.5 μL of the 16 μM solution of arginine vasopressin was added, and the plate was incubated at 37° C. for 30 min. • 6) Eu-cAMP tracer and Ulight-anti-cAMP were thawed and diluted with lysis buffer (Eu-cAMP tracer, Ulight-anti-cAMP and lysis buffer were all taken from the cAMP assay kit (manufacturer: Perkin Elmer)). • 7) 10 μL of Eu-cAMP tracer was added to the experimental wells, and then 10 μL of Ulight-anti-cAMP was added to the experimental wells. • 8) The reaction plate was centrifuged at room temperature at 200 g for 30 s and left at 25° C. for 1 h, and data collection was performed using a microplate reader.

Data set [5] can be described thus: Pharmacokinetic study in dogs (Test Example 1), intragastric administration. In kind it is in vivo. Particulars: beagles; for AUC(0-inf) / AUC(0-t) / Cmax / Tmax / half-life: beagle, dog, plasma, mean value. As for the experimental part:
as §3
A proper amount of tolvaptan and compound 5 was accurately weighed out and well mixed with a proper volume of 1% hydroxypropyl methylcellulose by vortexing or ultrasonication to give a 0.5 mg/mL solution of tolvaptan and a 2.15 mg/mL solution of compound 5 for intragastric administration.
Tolvaptan and compound 5 were intragastrically administrated. Blood was collected before the administration and 10 min, 30 min, 1 h, 2 h, 4 h, 6 h, 8 h and 24 h after the administration. EDTA-K2 was used as the anticoagulant, and the esterase inhibitor DDVP (manufacturer: Sigma) was added. Plasma samples were separated and cryopreserved at −70° C., and the compound 5 and tolvaptan levels were determined by LC-MS/MS.

Data set [6] can be described thus: Pharmacokinetic study in rats (Test Example 3), intravenous injection. In kind it is in vivo. Particulars: SD rats. An excerpt: 1.1.1. Experimental Animals: SD Rats, Male and Female, Weighing about 220 g. Housing Environment: SPF. The Animals were Transferred from the Animal Repository (999M-017) of the Laboratory Animal Management Department, Shanghai Institute of Planned Parenthood Research. 1.1.2. Administration Regimen:
A proper amount of the compound was accurately weighed out and well mixed with a proper volume of 10% DMSO+35% PEG400+55% normal saline by vortexing or ultrasonication to give a clear solution for intravenous injection.
Blood was collected at various time points after intravenous injection (before the administration and 0.0833, 0.25, 0.5, 1, 2, 4, 8 and 24 h after the administration). EDTA-K2 was used as the anticoagulant, and the esterase inhibitor DDVP was added. Plasma samples were separated and cryopreserved at −70° C., and the compound and tolvaptan levels were determined by LC-MS/MS.

[7] abbreviates: iv, Compound 5 0.5 mg/kg i.v. drip over 1 h, molecule detected Compound 5, mean value.
The mark [8] stands for this setting: iv, Compound 5 2.7 mg/kg i.v. drip over 1 h, molecule detected Compound 5, mean value.
Where [9] appears, read: po, Compound 5 2.7 mg/kg p.o., molecule detected Compound 5, mean value.
[10] abbreviates: female, Compound 5 PO 12.9 mg/kg, molecule detected Compound 5.
Setting [11] is: male, Compound 5 PO 12.9 mg/kg, molecule detected Compound 5.
Setting [12] is: Compound 5 administered PO 4.3 mg/kg, molecule detected Compound 5.
Where [13] appears, read: intragastric, tolvaptan converted in vivo from compound 5 vs tolvaptan administered.
Setting [14] is: po, Tolvaptan 10 mg/kg p.o., molecule detected Tolvaptan, mean value.
Setting [15] is: female, Tolvaptan PO 9 mg/kg, molecule detected Tolvaptan.
Where [16] appears, read: male, Tolvaptan PO 9 mg/kg, molecule detected Tolvaptan.
[17] abbreviates: Tolvaptan administered PO 1 mg/kg, molecule detected Tolvaptan.
[18] abbreviates: both sexes, Sprague-Dawley, rat, plasma, iv, Compound M i.v. 3.91 mg/kg, molecule detected Compound M, mean value.

SMILES strings stand for the structures.

By AUC(0-t) is commonly meant the area under the concentration-time curve up to a stated or last time point. Usually Cmax stands for the highest concentration seen after dosing. The term Tmax denotes the time from dosing to the highest level. For orientation: half-life means the time in which the quantity being followed falls by half. The term IC50 denotes the point on the concentration scale where inhibition reaches its midpoint. As usually defined, the AUC(0-inf) is total exposure, with the tail of the curve extrapolated. The low end stands for less exposure, the high end for more exposure. `Cc1ccccc1C(=O)Nc1ccc(C(=O)N2CCCC(OCOP(=O)(O)OCC[N+](C)(C)C)c3cc(Cl)ccc32)c(C)c1` (stereo not drawn) [Compound 5, ((7-Chloro-1-(2-methyl-4-(2-methylbenzamido)benzoyl)-2,3,4,5-tetrahydro-1H-benzo[b]azepin-5-yl)oxy)methyl (2-(trimethylammonio)ethyl) phosphate]: the “elevating the blood sodium level” value in data set [1] is given as “has the effect of elevating the blood sodium level”. Besides, the AUC(0-t) in data set [2] (setting [7]) is 1.2 µg·h/mL; in data set [2] (setting [8]), 7.85 µg·h/mL; in data set [2] (setting [9]), 0.122 µg·h/mL; in data set [3] (setting [10]) it was 0.0584 µg·h/mL; in data set [3] (setting [11]), 0.0461 µg·h/mL; in data set [5] (setting [12]) it was 0.156 µg·h/mL. Besides, the Cmax in data set [2] (setting [7]) was determined as 0.889 µg/mL; in data set [2] (setting [8]), 5.7 µg/mL; in data set [2] (setting [9]), 0.0615 µg/mL; in data set [3] (setting [10]), 0.0501 µg/mL; in data set [3] (setting [11]), 0.0444 µg/mL; in data set [5] (setting [12]), 0.0887 µg/mL. The Tmax in data set [2] (setting [7]) was determined as 1 h; in data set [2] (setting [8]) it was 1 h; in data set [2] (setting [9]), 0.5 h; in data set [3] (setting [10]) it was 0.167 h; in data set [3] (setting [11]), 0.167 h; in data set [5] (setting [12]), 0.389 h. The half-life is 0.704 h in data set [2] (setting [7]); 0.647 h in data set [2] (setting [8]); 1 h in data set [2] (setting [9]); 1.67 h in data set [3] (setting [10]); 1.55 h in data set [3] (setting [11]); 1.43 h in data set [5] (setting [12]). The “AUC0-t of tolvaptan converted from compound 5 compared with tolvaptan administered intragastrically” value in data set [2] (intragastric, compound 5 at a relatively low molar dose (2.7 mg/kg vs tolvaptan 10 mg/kg)) is “higher AUC0-t”. Moreover, in data set [4], the IC50 came to 8 nM. The molecule also had an AUC(0-inf) in data set [5] (setting [12]) of 0.162 µg·h/mL. Moreover, the “exposure compared with tolvaptan” value in data set [5] (setting [13]) was “higher exposure”. Further, the “half-life compared with tolvaptan” value in data set [5] (setting [13]) is listed as “longer half-life”.

Take `Cc1ccccc1C(=O)Nc1ccc(C(=O)N2CCCC(O)c3cc(Cl)ccc32)c(C)c1` (stereo not drawn) [Tolvaptan, reference compound]: in data set [2] (setting [14]), the AUC(0-t) amounted to 0.0102 µg·h/mL, the highest level (Cmax) was 0.00383 µg/mL, the Tmax worked out at 1.17 h and the half-life is 2.61 h. Moreover, in data set [3] (setting [15]), the AUC(0-t) is 1.82 µg·h/mL, the Cmax was 0.412 µg/mL, the Tmax was 2 h and the half-life is 2.64 h. In data set [3] (setting [16]), the AUC(0-t) came out at 0.0555 µg·h/mL, the Cmax was 0.0203 µg/mL and the Tmax was 1.67 h. Besides, in data set [5] (setting [17]), the AUC(0-inf) amounted to 0.0263 µg·h/mL, the AUC(0-t) was 0.0216 µg·h/mL, the Cmax stood at 0.00708 µg/mL and the Tmax is 1.5 h. Also, the half-life in data set [5] (setting [17]) was 1.94 h.

On to `Cc1ccccc1C(=O)Nc1ccc(C(=O)N2CCCC(OC(=O)OCOC(=O)C(N)C(C)C)c3cc(Cl)ccc32)c(C)c1.Cl` (stereo not drawn) [Hydrochloride of Compound 16], for which, in data set [6] (Hydrochloride of Compound 16 i.v. 4.41 mg/kg, molecule detected Hydrochloride of Compound 16), the “plasma level of administered molecule” value was “Undetectable”.

Broadly, the clearance is a measure of how efficiently the substance is removed, as volume per time. Lower therefore signals a low capacity for elimination. For the molecule `Cc1ccccc1C(=O)Nc1ccc(C(=O)N2CCCC(OC(=O)[C@@H](N)C(C)C)c3cc(Cl)ccc32)c(C)c1` (stereo partly drawn) [Compound M], in data set [6] (setting [18]), the AUC(0-inf) was determined as 0.824 µg·h/mL, the AUC(0-t) amounted to 0.786 µg·h/mL, the peak level (Cmax) was 0.719 µg/mL and the Tmax came out at 8.34 min. In data set [6] (setting [18]), this molecule had a clearance of 5.45 L/h/kg and a half-life of 1.17 h. In data set [6] (both sexes, Sprague-Dawley, rat, plasma, iv, Compound M i.v. 3.91 mg/kg, molecule detected Compound M, mean value, read-out: Vss), the Vd was 6.47 L/kg.

(Values after patent US12662497B2, “Benzazepine compounds, preparation method therefor and pharmaceutical use thereof” (Shanghai Senhui Medicine Co., Ltd., priority 2021, dated 2026).)
